Results reported in patent publication US20120295907A1, “INSECTICIDAL COMPOUNDS” (SYNGENTA CROP PROTECTION, LLC, priority 2009, published 2012).

Key:
Spodoptera littoralis = Spodoptera littoralis (Egyptian Cotton Leafworm) cotton leaf disc spray test; format: in vivo; conditions: foliar, 72 h, 200 ppm spray on cotton leaf discs, L1 larvae, mortality, feeding behavior, growth regulation 3 DAT
Heliothis virescens = Heliothis virescens (Tobacco Budworm) egg test on artificial diet; format: in vivo; conditions: 96 h, 200 ppm (concentration in well 18 ppm), eggs 0-24 h old on artificial diet, 4 days, egg mortality, larval mortality, growth regulation
Plutella xylostella = Plutella xylostella (Diamond Back Moth) artificial diet MTP test; format: in vivo; conditions: 144 h, 200 ppm (concentration in well 18 ppm), L2 larvae, 6 days, larval mortality, growth regulation
Diabrotica balteata = Diabrotica balteata (Corn Root Worm) artificial diet MTP test; format: in vivo; conditions: 120 h, 200 ppm (concentration in well 18 ppm), L2 larvae, 5 days, larval mortality, growth regulation
Thrips tabaci = Thrips tabaci (Onion Thrips) sunflower leaf disc spray test; format: in vivo; conditions: foliar, 168 h, 200 ppm spray on sunflower leaf discs, population of mixed ages, 7 days, mortality
Tetranychus urticae = Tetranychus urticae (Two-Spotted Spider Mite) bean leaf disc spray test; format: in vivo; conditions: foliar, 192 h, 200 ppm spray on bean leaf discs, mite populations of mixed ages, 8 days, egg, larval and adult mortality, read-out: control of Tetranychus urticae
Myzus persicae = Myzus persicae (Green Peach Aphid) sunflower leaf disc spray test; format: in vivo; conditions: foliar, 144 h, 200 ppm spray on sunflower leaf discs, aphid population of mixed ages, 6 DAT, mortality

Row | SMILES | melting point | pest or weed control at 200 ppm (Spodoptera littoralis) | pest or weed control at 200 ppm (Heliothis virescens) | pest or weed control at 200 ppm (Plutella xylostella) | pest or weed control at 200 ppm (Diabrotica balteata) | pest or weed control at 200 ppm (Thrips tabaci) | pest or weed control at 200 ppm (Tetranychus urticae) | pest or weed control at 200 ppm (Myzus persicae)
1 | COc1c(NC(=O)c2cnc(Cl)nc2Cl)cccc1C(=O)Nc1c(Cl)cc(C(F)(C(F)(F)F)C(F)(F)C(F)(F)F)cc1Br (centres unmarked) [B210] | 114 to 115 °C |  |  |  |  |  |  | 
2 | COc1c(NC(=O)c2c(C)cc(Cl)cc2Cl)cccc1C(=O)Nc1c(Cl)cc(C(F)(C(F)(F)F)C(F)(F)C(F)(F)F)cc1Br (centres unmarked) [B211] | 113 to 118 °C |  |  |  |  |  |  | 
3 | COc1c(NC(=O)c2cc([N+](=O)[O-])c(F)cc2C)cccc1C(=O)Nc1c(Cl)cc(C(F)(C(F)(F)F)C(F)(F)C(F)(F)F)cc1Br (centres unmarked) [B212] | 83 to 84 °C |  |  |  |  |  |  | 
4 | CCOc1cc(C(=O)Nc2cccc(C(=O)Nc3c(Cl)cc(C(F)(C(F)(F)F)C(F)(F)C(F)(F)F)cc3Br)c2OC)ccc1[N+](=O)[O-] (centres unmarked) [B173] | 238 °C |  |  |  |  |  |  | 
5 | COc1c(NC(=O)c2c(Cl)cc(Br)cc2Cl)cccc1C(=O)Nc1c(Cl)cc(C(F)(C(F)(F)F)C(F)(F)C(F)(F)F)cc1Br (centres unmarked) [B209] | 250 °C |  |  |  |  |  |  | 
6 | COc1c(NC(=O)c2ccccc2C)cccc1C(=O)Nc1c(Cl)cc(C(F)(C(F)(F)F)C(F)(F)C(F)(F)F)cc1Cl (centres unmarked) [C4] |  | ≥ 80% | ≥ 80% | ≥ 80% | ≥ 80% | ≥ 80% | ≥ 80% | ≥ 80%
7 | COc1c(NC(=O)c2ccccc2C)cccc1C(=O)Nc1c(Cl)cc(C(F)(C(F)(F)F)C(F)(F)C(F)(F)F)cc1Br (centres unmarked) [B4] |  | ≥ 80% | ≥ 80% | ≥ 80% | ≥ 80% | ≥ 80% | ≥ 80% | ≥ 80%
8 | COc1c(NC(=O)c2ccc(C)cc2)cccc1C(=O)Nc1c(Cl)cc(C(F)(C(F)(F)F)C(F)(F)C(F)(F)F)cc1Cl (centres unmarked) [C8] |  | ≥ 80% | ≥ 80% | ≥ 80% | ≥ 80% | ≥ 80% | ≥ 80% | ≥ 80%
9 | COc1c(NC(=O)c2ccc(SC)cc2)cccc1C(=O)Nc1c(Cl)cc(C(F)(C(F)(F)F)C(F)(F)C(F)(F)F)cc1Br (centres unmarked) [B26] |  | ≥ 80% | ≥ 80% | ≥ 80% | ≥ 80% | ≥ 80% | ≥ 80% | ≥ 80%
10 | COc1c(NC(=O)c2ccc(Cl)cc2Cl)cccc1C(=O)Nc1c(Cl)cc(C(F)(C(F)(F)F)C(F)(F)C(F)(F)F)cc1Br (centres unmarked) [B155] |  | ≥ 80% | ≥ 80% | ≥ 80% | ≥ 80% | ≥ 80% | ≥ 80% | ≥ 80%
11 | COc1cc([N+](=O)[O-])ccc1C(=O)Nc1cccc(C(=O)Nc2c(Cl)cc(C(F)(C(F)(F)F)C(F)(F)C(F)(F)F)cc2Br)c1OC (centres unmarked) [B177] | 190 °C |  |  |  |  |  |  | 
12 | COc1c(NC(=O)c2ccccc2[N+](=O)[O-])cccc1C(=O)Nc1c(Cl)cc(C(F)(C(F)(F)F)C(F)(F)C(F)(F)F)cc1Br (centres unmarked) [B80] |  | ≥ 80% | ≥ 80% | ≥ 80% | ≥ 80% | ≥ 80% | ≥ 80% | ≥ 80%
13 | COc1c(NC(=O)c2ccc(F)cc2)cccc1C(=O)Nc1c(Cl)cc(C(F)(C(F)(F)F)C(F)(F)C(F)(F)F)cc1Cl (centres unmarked) [C19] |  | ≥ 80% | ≥ 80% | ≥ 80% | ≥ 80% | ≥ 80% | ≥ 80% | ≥ 80%
14 | COc1c(NC(=O)c2ccc(C#N)cn2)cccc1C(=O)Nc1c(Cl)cc(C(F)(C(F)(F)F)C(F)(F)C(F)(F)F)cc1Br (centres unmarked) [B208] | 208 to 210 °C |  |  |  |  |  |  | 
15 | COc1c(NC(=O)c2ccccc2Cl)cccc1C(=O)Nc1c(Cl)cc(C(F)(C(F)(F)F)C(F)(F)C(F)(F)F)cc1Cl (centres unmarked) [C5] |  | ≥ 80% | ≥ 80% | ≥ 80% | ≥ 80% | ≥ 80% | ≥ 80% | ≥ 80%
16 | COc1c(NC(=O)c2ccnc(F)c2)cccc1C(=O)Nc1c(Cl)cc(C(F)(C(F)(F)F)C(F)(F)C(F)(F)F)cc1Br (centres unmarked) [B151] |  | ≥ 80% | ≥ 80% | ≥ 80% | ≥ 80% | ≥ 80% | ≥ 80% | ≥ 80%
17 | COc1c(NC(=O)c2ccc([N+](=O)[O-])cc2Cl)cccc1C(=O)Nc1c(Cl)cc(C(F)(C(F)(F)F)C(F)(F)F)cc1Cl [E9] |  | ≥ 80% | ≥ 80% | ≥ 80% | ≥ 80% | ≥ 80% | ≥ 80% | ≥ 80%
18 | COc1c(NC(=O)c2ccc([N+](=O)[O-])cc2)cccc1C(=O)Nc1c(Cl)cc(C(F)(C(F)(F)F)C(F)(F)F)cc1Cl [E5] |  | ≥ 80% | ≥ 80% | ≥ 80% | ≥ 80% | ≥ 80% | ≥ 80% | ≥ 80%
19 | COc1c(NC(=O)c2cc(C)c([N+](=O)[O-])c(C)c2)cccc1C(=O)Nc1c(Cl)cc(C(F)(C(F)(F)F)C(F)(F)C(F)(F)F)cc1Br (centres unmarked) [B165] | 218 °C |  |  |  |  |  |  | 
20 | CCc1cc(C(F)(C(F)(F)F)C(F)(F)C(F)(F)F)cc(C)c1NC(=O)c1cccc(NC(=O)c2ccc([N+](=O)[O-])cc2)c1OC (centres unmarked) [A18] |  | ≥ 80% | ≥ 80% | ≥ 80% | ≥ 80% | ≥ 80% | ≥ 80% | ≥ 80%
